Data from patent US9102688B2, “Sulfonaminoquinoline hepcidin antagonists” (Vifor (International) AG, priority 2011, dated 2015).

biological target: T1, human ferroportin (Homo sapiens, UniProt Q9NP59); test: ferroportin internalization assay (inhibition of hepcidin-induced internalization of Fpn); format: cell-based; settings: MDCK-FPN-HaloTag cells, 100 nM hepcidin, overnight incubation; concentration range from 0.04 to 40 μM
T1 construct: expressed in transfected cells
T1 sequence (Q9NP59 1-571): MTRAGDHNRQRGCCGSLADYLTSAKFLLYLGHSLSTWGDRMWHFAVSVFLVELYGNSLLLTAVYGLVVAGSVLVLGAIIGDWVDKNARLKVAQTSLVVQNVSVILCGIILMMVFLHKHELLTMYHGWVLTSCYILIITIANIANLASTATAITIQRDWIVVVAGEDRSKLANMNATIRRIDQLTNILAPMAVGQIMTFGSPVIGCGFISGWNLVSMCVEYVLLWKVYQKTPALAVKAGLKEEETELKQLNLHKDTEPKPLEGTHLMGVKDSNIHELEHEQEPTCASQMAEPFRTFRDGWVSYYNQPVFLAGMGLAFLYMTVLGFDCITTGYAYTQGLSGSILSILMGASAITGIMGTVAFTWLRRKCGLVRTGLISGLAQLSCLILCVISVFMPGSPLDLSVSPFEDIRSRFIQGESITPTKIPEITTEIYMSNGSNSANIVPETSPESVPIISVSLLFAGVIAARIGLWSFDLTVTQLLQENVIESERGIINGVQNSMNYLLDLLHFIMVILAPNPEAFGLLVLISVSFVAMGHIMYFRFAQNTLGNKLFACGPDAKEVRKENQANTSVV
Summary of the method: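 MDCK cells stably expressing human ferroportin–HaloTag were labelled with TMR ligand, then incubated overnight at 37 °C with compound plus 100 nM hepcidin (final). After fixation and nuclear staining, confocal imaging quantified membrane Fpn fluorescence to measure blocking of hepcidin-induced internalization.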

| SMILES | IC50 |
| --- | --- |
| O=S(=O)(Nc1cccc2cccnc12)c1ccccc1 [Example 4, N-Quinolin-8-yl-benzenesulfonamide] | 4590 nM |
| O=S(=O)(Nc1cccc2cccnc12)c1ccc(C(F)(F)F)cc1 [Example 17, N-Quinolin-8-yl-4-trifluoromethyl-benzenesulfonamide] | 1000 nM |
| O=S(=O)(Nc1ccc(C(F)(F)F)c2cccnc12)c1ccccn1 [Example 234, Pyridine-2-sulfonic acid (5-trifluoromethyl-quinolin-8-yl)-amide] | 460 nM |
| O=S1(=O)Nc2c(cc(Cl)c3cccnc23)-c2cc(N3CCC(O)CC3)ccc21 [Example 504, 1-(12-Chloro-6,6-dioxo-5,6-dihydro-6λ*6*-thia-4,5-diaza-chrysen-9-yl)-piperidin-4-ol] | 1100 nM |
| COc1cc(NS(=O)(=O)c2ccccc2)c2ncccc2c1 [Example 23, N-(6-Methoxy-quinolin-8-yl)-benzenesulfonamide] | 6400 nM |
| O=S(=O)(Nc1cccc2cccnc12)c1c(Cl)cc(Cl)cc1Cl [Example 47, 2,4,6-Trichloro-N-quinolin-8-yl-benzenesulfonamide] | 857 nM |
| COC(=O)c1ccnc2c3c(ccc12)-c1ccccc1S(=O)(=O)N3 [Example 319, 6,6-Dioxo-5,6-dihydro-6λ*6*-thia-4,5-diaza-chrysene-1-carboxylic acid methyl ester] | 2940 nM |
| COCCN(C)c1cc2c(c3ncccc13)NS(=O)(=O)c1ccccc1-2 [Example 554, (6,6-Dioxo-5,6-dihydro-6λ*6*-thia-4,5-diaza-chrysen-12-yl)-(2-methoxy-ethyl)-methyl-amine] | 550 nM |
| O=S(=O)(Nc1cc(F)cc2cccnc12)c1c(F)cccc1F [Example 94, 2,6-Difluoro-N-(6-fluoro-quinolin-8-yl)-benzenesulfonamide] | 1000 nM |
| CC(C)C(=O)Nc1cc(C(F)(F)F)ccc1S(=O)(=O)Nc1cccc2cccnc12 [Example 61, N-[2-(Quinolin-8-ylsulfamoyl)-5-trifluoromethyl-phenyl]-isobutyramide] | 10000 nM |
| COCCNc1cc2c(c3ncccc13)NS(=O)(=O)c1ccccc1-2 [Example 548, (6,6-Dioxo-5,6-dihydro-6λ*6*-thia-4,5-diaza-chrysen-12-yl)-(2-methoxy-ethyl)-amine] | 2830 nM |
| COC(=O)c1ccccc1S(=O)(=O)Nc1cccc2cccnc12 [Example 39, 2-(Quinolin-8-ylsulfamoyl)-benzoic acid methyl ester] | 58100 nM |
| O=S(=O)(Nc1cccc2cccnc12)c1cncc(C(F)(F)F)c1 [Example 229, 5-Trifluoromethyl-pyridine-3-sulfonic acid quinolin-8-ylamide] | 3980 nM |
| O=S(=O)(Nc1cccc2cccnc12)c1ccccn1 [Example 85, Pyridine-2-sulfonic acid quinolin-8-ylamide] | 1890 nM |
| O=S(=O)(Nc1ccccc1)Nc1cccc2cccnc12 [Example 46, N-phenyl(quinolin-8-ylamino)sulfonamide] | 2300 nM |
| Cc1cnc2c(NS(=O)(=O)c3ccc(C(F)(F)F)cc3N)cccc2c1 [Example 73, 2-Amino-N-(3-methyl-quinolin-8-yl)-4-trifluoromethyl-benzenesulfonamide] | 3000 nM |
| N#Cc1ccccc1S(=O)(=O)Nc1cccc2cccnc12 [Example 37, 2-Cyano-N-quinolin-8-yl-benzenesulfonamide] | 815 nM |
| O=[N+]([O-])c1ccccc1S(=O)(=O)Nc1cccc2cccnc12 [Example 6, 2-Nitro-N-quinolin-8-yl-benzenesulfonamide] | 2900 nM |
| Cc1cnc2c(NS(=O)(=O)c3cccnc3)cccc2c1 [Example 72, Pyridine-3-sulfonic acid (3-methyl-quinolin-8-yl)-amide] | 1390 nM |
| O=S(=O)(Nc1cccc2cccnc12)c1cnccn1 [Example 230, Pyrazine-2-sulfonic acid quinolin-8-ylamide] | 1910 nM |
| O=S1(=O)Nc2c(cc(F)c3cccnc23)-c2cc(C(F)(F)F)ccc21 [Example 306, 12-Fluoro-9-trifluoromethyl-5H-6-thia-4,5-diaza-chrysene 6,6-dioxide] | 4190 nM |
| Nc1ccc2c(c1)-c1cc(Cl)c3cccnc3c1NS2(=O)=O [Example 519, 12-Chloro-6,6-dioxo-5,6-dihydro-6λ*6*-thia-4,5-diaza-chrysen-9-ylamine] | 3570 nM |
| COCCNC(=O)c1ccc2c(c1)-c1cc(Cl)c3cccnc3c1NS2(=O)=O [Example 528, 12-Chloro-6,6-dioxo-5,6-dihydro-6λ*6*-thia-4,5-diaza-chrysene-9-carboxylic acid (2-methoxy-ethyl)-amide] | 3900 nM |
| COc1cc2c(c3ncccc13)NS(=O)(=O)c1ccc(C(F)(F)F)cc1-2 [Example 589, 12-Methoxy-9-trifluoromethyl-5H-6-thia-4,5-diaza-chrysene 6,6-dioxide] | 960 nM |
| COc1ccnc2c3c(ccc12)-c1cc(C(F)(F)F)ccc1S(=O)(=O)N3 [Example 109, 1-Methoxy-9-trifluoromethyl-5H-6-thia-4,5-diaza-chrysene 6,6-dioxide] | 979 nM |

The next lines start with the values.

| IC50 | SMILES |
| --- | --- |
| 12600 nM | O=S1(=O)Nc2c(cc(Br)c3cccnc23)-c2ccccc21 [Example 545, 12-Bromo-5H-6-thia-4,5-diaza-chrysene 6,6-dioxide] |
| 3700 nM | CN1C(c2ccc(F)c(Cl)c2)c2ccc3cccnc3c2NS1(=O)=O (stereo not shown) [Example 391, 1-(3-Chloro-4-fluoro-phenyl)-2-methyl-1,4-dihydro-2H-3-thia-2,4,5-triaza-phenanthrene 3,3-dioxide] |
| 920 nM | O=[N+]([O-])c1cc(F)ccc1S(=O)(=O)Nc1cccc2cccnc12 [Example 30, 4-Fluoro-2-nitro-N-quinolin-8-yl-benzenesulfonamide] |
| 770 nM | O=S1(=O)Nc2c(ccc3cccnc23)-c2cc(Cl)ccc21 [Example 325, 9-Chloro-5H-6-thia-4,5-diaza-chrysene 6,6-dioxide] |
| 3880 nM | Cc1cccc2c1S(=O)(=O)Nc1c-2ccc2cccnc12 [Example 335, 7-Methyl-5H-6-thia-4,5-diaza-chrysene 6,6-dioxide] |
| 1870 nM | COc1ccccc1C1c2ccc3cccnc3c2NS(=O)(=O)N1C (stereo not shown) [Example 384, 1-(2-Methoxy-phenyl)-2-methyl-1,4-dihydro-2H-3-thia-2,4,5-triaza-phenanthrene 3,3-dioxide] |
| 250 nM | CN1C(c2ccc(F)c(F)c2)c2ccc3cccnc3c2NS1(=O)=O (stereo not shown) [Example 392, 1-(3,4-Difluoro-phenyl)-2-methyl-1,4-dihydro-2H-3-thia-2,4,5-triaza-phenanthrene 3,3-dioxide] |
| 3200 nM | Cc1ccc2c(c1)-c1ccc3cccnc3c1NS2(=O)=O [Example 327, 9-Methyl-5H-6-thia-4,5-diaza-chrysene 6,6-dioxide] |
| 1810 nM | COc1ccc(S(=O)(=O)Nc2cccc3cccnc23)c([N+](=O)[O-])c1 [Example 34, 4-Methoxy-2-nitro-N-quinolin-8-yl-benzenesulfonamide] |
| 3940 nM | Nc1cc(F)ccc1S(=O)(=O)Nc1cccc2cccnc12 [Example 31, 2-Amino-4-fluoro-N-quinolin-8-yl-benzenesulfonamide] |
| 20800 nM | Nc1ccccc1S(=O)(=O)Nc1cccc2cccnc12 [Example 8, 2-Amino-N-quinolin-8-yl-benzenesulfonamide] |
| 8560 nM | CN1C(c2ccc(F)c(CNCCN3CCOCC3)c2)c2ccc3cccnc3c2NS1(=O)=O (stereo not shown) [Example 426, [2-Fluoro-5-(2-methyl-3,3-dioxo-1,2,3,4-tetrahydro-3λ*6*-thia-2,4,5-triaza-phenanthren-1-yl)-benzyl]-(2-morpholin-4-yl-ethyl)-amine] |
| 600 nM | Cc1ccc(C2c3ccc4cccnc4c3NS(=O)(=O)N2C)cc1 (stereo not shown) [Example 383, 2-Methyl-1-p-tolyl-1,4-dihydro-2H-3-thia-2,4,5-triaza-phenanthrene 3,3-dioxide] |
| 4180 nM | COC(=O)c1ccc2c(c1)-c1ccc3cccnc3c1NS2(=O)=O [Example 307, 6,6-Dioxo-5,6-dihydro-6λ*6*-thia-4,5-diaza-chrysene-9-carboxylic acid methyl ester] |
| 1480 nM | COc1ccc(C2c3ccc4cccnc4c3NS(=O)(=O)N2C)cc1F (stereo not shown) [Example 396, 1-(3-Fluoro-4-methoxy-phenyl)-2-methyl-1,4-dihydro-2H-3-thia-2,4,5-triaza-phenanthrene 3,3-dioxide] |
| 720 nM | CN1C(c2cccc(F)c2)c2ccc3cccnc3c2NS1(=O)=O (stereo not shown) [Example 389, 1-(3-Fluoro-phenyl)-2-methyl-1,4-dihydro-2H-3-thia-2,4,5-triaza-phenanthrene 3,3-dioxide] |
| 3570 nM | O=S1(=O)Nc2c(c(F)cc3cccnc23)-c2ccccc21 [Example 323, 11-Fluoro-5H-6-thia-4,5-diaza-chrysene 6,6-dioxide] |
| 2370 nM | CC(O)c1cc2c(c3ncccc13)NS(=O)(=O)N(C)C2c1ccc(F)cc1 (stereo not shown) [Example 403, 1-[1-(4-Fluoro-phenyl)-2-methyl-3,3-dioxo-1,2,3,4-tetrahydro-3λ*6*-thia-2,4,5-triaza-phenanthren-9-yl]-ethanol] |
